# Results from ChEMBL document CHEMBL4371091, “Hypalocrinins, Taurine-Conjugated Anthraquinone and Biaryl Pigments from the Deep Sea Crinoid Hypalocrinus naresianus” (J Nat Prod, 2019).
# The source made the active and inactive calls. No cut-off for these calls is given here.
# Legend:
# [1] = Solubility of the compound in water; assay type: physicochemical; conditions: buffer
# HT-29 = experiment: Cytotoxicity against human HT-29 cells at 25 ug/ml; assay type: functional, cell-based
# PSN1 = experiment: Cytotoxicity against human PSN1 cells at 25 ug/ml; assay type: functional, cell-based
# MDA-MB-231 = experiment: Cytotoxicity against human MDA-MB-231 cells at 25 ug/ml; assay type: functional, cell-based
# A549 = experiment: Cytotoxicity against human A549 cells at 25 ug/ml; assay type: functional, cell-based
Structure (SMILES),solubility [1],also measured
O=C(NCCS(=O)(=O)O)c1cc(O)c2c(c1)C(=O)c1cc(O)c(Br)c(O)c1C2=O,Soluble,Activity (HT-29): inactive; Activity (PSN1): inactive; Activity (MDA-MB-231): inactive; Activity (A549): inactive
CCCc1cc(O)c2c(c1)C(=O)c1cc(OS(=O)(=O)O)cc(O)c1C2=O,Soluble,–
O=C(O)c1cc(O)c2c(c1)C(=O)c1cc(O)c(Br)c(O)c1C2=O,Soluble,–
O=C(NCCS(=O)(=O)O)c1cc(O)c2c(c1)C(=O)c1cc(O)cc(O)c1C2=O,Soluble,–
CCCc1cc(O)c2c(c1)C(=O)c1cc(O)c(CNCCS(=O)(=O)O)c(O)c1C2=O,Soluble,–

# Now from value to compound, other results behind:
solubility [1],Structure (SMILES),also measured
Soluble,O=C(NCCS(=O)(=O)O)c1cc(OS(=O)(=O)O)c2c(c1)C(=O)c1cc(O)c(Br)c(O)c1C2=O,–
Soluble,O=C(NCCS(=O)(=O)O)c1cc(OS(=O)(=O)O)c2c(c1)C(=O)c1cc(O)c(-c3c(O)c(Br)c(O)c4c3C(=O)c3cc(C(=O)NCCS(=O)(=O)O)cc(OS(=O)(=O)O)c3C4=O)c(O)c1C2=O,–
Soluble,O=C(NCCS(=O)(=O)O)c1cc(O)c2c(c1)C(=O)c1c(c(O)c(Br)c(O)c1-c1c(O)cc3c(c1O)C(=O)c1c(OS(=O)(=O)O)cc(C(=O)NCCS(=O)(=O)O)cc1C3=O)C2=O,–
Soluble,O=C(NCCS(=O)(=O)O)c1cc(O)c2c(c1)C(=O)c1cc(O)c(CNCCS(=O)(=O)O)c(O)c1C2=O,–
